Experimental data from article PMC6680430, “Quantitative Prediction of Human Pharmacokinetics and Pharmacodynamics of CKD519, a Potent Inhibitor of Cholesteryl Ester Transfer Protein (CETP)” (Pharmaceutics, 2019).

Experiments:
[1] = target: T1, cholesteryl ester transfer protein (CETP) (Homo sapiens, UniProt P11597); assay: in vitro potency, CETP inhibition (in-house data); details: read-out: IC50 (in vitro potency)
T1 sequence (P11597 18-493): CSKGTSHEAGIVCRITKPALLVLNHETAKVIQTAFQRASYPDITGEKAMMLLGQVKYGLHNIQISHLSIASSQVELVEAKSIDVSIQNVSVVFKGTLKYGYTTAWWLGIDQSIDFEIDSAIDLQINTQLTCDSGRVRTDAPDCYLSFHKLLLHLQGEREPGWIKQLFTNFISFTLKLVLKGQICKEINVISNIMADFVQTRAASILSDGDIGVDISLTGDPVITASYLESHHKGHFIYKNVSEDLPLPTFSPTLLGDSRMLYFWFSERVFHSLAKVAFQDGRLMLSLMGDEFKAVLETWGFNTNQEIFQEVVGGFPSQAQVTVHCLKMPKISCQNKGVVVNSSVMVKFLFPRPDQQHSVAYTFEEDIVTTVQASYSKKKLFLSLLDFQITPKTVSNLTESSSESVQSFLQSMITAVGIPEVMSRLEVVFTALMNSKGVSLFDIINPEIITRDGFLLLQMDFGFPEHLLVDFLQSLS

[2] = animal full PK study in monkeys (NCA and PK model); format: in vivo, Cynomolgus monkey; details: monkey; for Tmax: median (range)
Experimental: Animal PK data for analysis were collected from preclinical studies performed at ChongKunDang laboratory. All animal experiments were performed with relevant guidelines and regulations, and the protocol was approved by the Institutional Animal Care and Use Committee (IACUC) of ChongKunDang (Approval number: S-13-015). A single dose of CKD519 was administered either orally or via intravenous infusion to hamsters (intravenous dose of 0.5 mg/kg, oral dose of 3, 15, or 45 mg/kg, n = 30); rats (intravenous dose of 0.5 mg/kg, oral dose of 5, 15, or 45 mg/kg, n = 20); and monkeys (intravenous dose of 0.1 mg/kg, oral dose of 1, 5, or 30 mg/kg, n = 16). The identical solution was administered to all animal species in the fasted state. Plasma CKD519 concentration was measured before and at 0.083, 0.25, 0.5, 1, 2, 4, 8, and 24 h after administration in hamsters and rats, and before and at 0.083, 0.25, 0.5, 1, 2, 4, 6, 8, 12, 24, 48, and 72 h after administration in monkeys. Two hamsters given identical doses were sampled in a rotating manner.
The plasma samples were stored at −70 °C before the analysis and were thawed at room temperature. […] A sensitive, specific, and validated liquid chromatography coupled with a tandem mass spectrometer (HPLC-MS/MS) assay was used for the determination of CKD519 concentration in animal plasma samples. A structural analogue of CKD519 was used as the internal standard. The validated working range was from 2 ng/mL (the lower limit of quantification, LLOQ) to 20,000 ng/mL. Quality control (QC) samples were analyzed together with the study samples. Intra-day and inter-day precision and accuracy results were within the acceptance criteria based on the Ministry of Food and Drug Safety (MFDS) guidelines. An exploratory data analysis was performed through non-compartmental analysis (NCA) using the NonCompart package (developed by Bae, version 0.4.4) in R (version 3.5.1, The R Foundation, Vienna, Austria).
Using the PK data from each species, nonlinear mixed-effect modeling was conducted using NONMEM (version 7.4, Icon Development Solutions, Ellicott City, MD, USA) reflecting the clues from NCA. The first-order conditional estimation method with interaction (FOCE-I) was used whenever applicable. The adequacy of the model was checked using changes in the objective function value (OFV), visual inspection of various diagnostic plots (goodness-of-fit (GOF) plot), and methods of visual predictive check (VPC) and bootstrap were used for the diagnostics on the model stability and parameter reliability. The significance of model improvement was evaluated using a likelihood-ratio test (LRT). In the nested models, the result was considered statistically significant if the OFV decreased more than 3.84 (p-value < 0.05, degree of freedom (df) = 1) and 5.99 (p-value < 0.05, df = 2). The degree of freedom is defined as the gap of the numbers of parameters of the two subsequent models that are being compared. In the case of non-nested models, the Akaike information criteria (AIC) value was used to select the model that best described the data. R (version 3.5.1., R Foundation for Statistical Computing, Vienna, Austria) was used for data preparation, NCA, graphical analysis, model diagnostics, and statistical summaries.
Initially, a two-compartment model with first-order absorption was developed to describe the biphasic curve, and several absorption structures (e.g., zero-order with absorption lag time, Weibull-type absorption) were applied to the base model if needed. The change in absolute bioavailability (F) by dose levels was also considered. […]

[3] = absolute bioavailability from first-in-human study (observed oral AUC vs predicted intravenous AUC); format: in vivo; details: AUC ratio observed oral / predicted intravenous
Text: The absolute bioavailability was estimated for each dose (Table 7) by comparing the AUC of the observed oral PK profile in the first-in-human study and that of the predicted human i.v. PK profile from animal PK data. […] Even though the trends were similar, absolute bioavailability estimated by the observed PK profile was less than one-fifth of the predicted bioavailability using the animal PK data. […] Delayed absorption was also found, and the difference in formulation between animals and humans was considered to have caused the delay by affecting the absorption rate. Simulated AUC, Cmax, and Tmax were within 2-folds, the range that is generally accepted for animal-to-human predictions.

[4] = PK model, final estimate (%RSE)
[5] = intravenous 0.1 mg/kg, NCA, mean ± SD
[6] = two-compartment PK model, final estimate (%RSE)

For `COc1cc(F)c(C(C)C)cc1C1=C(CN2C(=O)O[C@H](c3cc(C(F)(F)F)cc(C(F)(F)F)c3)[C@@H]2C)CC(C)(C)CC1` [CKD519], which IC50 [1] is on record?
The IC50 was 2.3 nM.

What about the “α (scale parameter of Weibull absorption)” value [2, 4] of the same molecule?
Its value is 5.44 (11.8%).

What about the “β (shape parameter of Weibull absorption)” value [2, 4] of the same molecule?
The value was 3.54 (6.50%).

And the AUClast [2, 5]?
The AUClast was 5150 ± 1530 ng·h/mL.

What about the “V/F * (V for intravenous)” value [2, 5] of the same molecule?
The value was 3500 ± 1380 mL.

What about the ke [2, 5] of the same molecule?
The ke was 0.0105 ± 0.00836 h⁻¹.

What about the t1/2 [2, 5] of the same molecule?
The t1/2 was 104 ± 80.0 h.

What about the Tmax ([2]; intravenous 0.1 mg/kg, NCA) of the same molecule?
Its Tmax is 0.1665 (0.083–0.25) h.

And the AUClast ([2]; oral 1 mg/kg, NCA, mean ± SD)?
The AUClast was 8940 ± 954 ng·h/mL.

And the CL/F ([2]; oral 1 mg/kg, NCA, mean ± SD)?
The CL/F was 230 ± 64.6 mL/h.

What about the Cmax ([2]; oral 1 mg/kg, NCA, mean ± SD) of the same molecule?
Its Cmax is 752 ± 148 ng/mL.

What about the V/F ([2]; oral 1 mg/kg, NCA, mean ± SD) of the same molecule?
Its V/F is 17600 ± 4000 mL.

What about the ke ([2]; oral 1 mg/kg, NCA, mean ± SD) of the same molecule?
The ke was 0.0140 ± 0.0057 h⁻¹.

What about the t1/2 ([2]; oral 1 mg/kg, NCA, mean ± SD) of the same molecule?
The t1/2 was 59.9 ± 35.5 h.

What about the Tmax ([2]; oral 1 mg/kg, NCA) of the same molecule?
The Tmax was 5.5 (5–6) h.

And the AUClast ([2]; oral 5 mg/kg, NCA, mean ± SD)?
The AUClast was 29500 ± 4840 ng·h/mL.

And the CL/F ([2]; oral 5 mg/kg, NCA, mean ± SD)?
The CL/F was 309 ± 77.3 mL/h.

What about the Cmax ([2]; oral 5 mg/kg, NCA, mean ± SD) of the same molecule?
The Cmax was 4700 ± 1100 ng/mL.

And the V/F ([2]; oral 5 mg/kg, NCA, mean ± SD)?
Its V/F is 50500 ± 16900 mL.

And the ke ([2]; oral 5 mg/kg, NCA, mean ± SD)?
Its ke is 0.00707 ± 0.00412 h⁻¹.

And the t1/2 ([2]; oral 5 mg/kg, NCA, mean ± SD)?
The t1/2 was 125 ± 64.6 h.

What about the Tmax ([2]; oral 5 mg/kg, NCA) of the same molecule?
Its Tmax is 7 (6–8) h.

And the AUClast ([2]; oral 30 mg/kg, NCA, mean ± SD)?
The AUClast was 79100 ± 15600 ng·h/mL.

What about the CL/F ([2]; oral 30 mg/kg, NCA, mean ± SD) of the same molecule?
The CL/F was 999 ± 123 mL/h.

And the Cmax ([2]; oral 30 mg/kg, NCA, mean ± SD)?
Its Cmax is 10200 ± 2390 ng/mL.

What about the V/F ([2]; oral 30 mg/kg, NCA, mean ± SD) of the same molecule?
The V/F was 67800 ± 44900 mL.

What about the ke ([2]; oral 30 mg/kg, NCA, mean ± SD) of the same molecule?
The ke was 0.0194 ± 0.0104 h⁻¹.

And the t1/2 ([2]; oral 30 mg/kg, NCA, mean ± SD)?
Its t1/2 is 46.3 ± 26.8 h.

What about the Tmax ([2]; oral 30 mg/kg, NCA) of the same molecule?
Its Tmax is 8 (8–8) h.

What about the CL [2, 6] of the same molecule?
The CL was 0.0344 (24.0%) L/h.

What about the Q [2, 6] of the same molecule?
The Q was 0.0895 (49.9%) L/h.

What about the Vc [2, 6] of the same molecule?
Its Vc is 0.383 (74.7%) L.

What about the Vp [2, 6] of the same molecule?
Its Vp is 3.40 (51.5%) L.

And the “Absolute Bioavailability” value ([3]; oral dose 25 mg)?
Its value is 0.0362.

And the “Absolute Bioavailability” value ([3]; oral dose 50 mg)?
The value was 0.0321.

What about the “Absolute Bioavailability” value ([3]; oral dose 100 mg) of the same molecule?
The value was 0.0191.

What about the “Absolute Bioavailability” value ([3]; oral dose 200 mg) of the same molecule?
Its value is 0.0140.

And the “Absolute Bioavailability” value ([3]; oral dose 400 mg)?
Its value is 0.00814.
